Values joined by “and” are separate entries in the source; they are usually repeats but may differ in a detail not shown here. Equal values may be shown once.
What was measured:
[1] = parameters: method as in PMID 18246556, doi:10.1016/S0277-5387(99)00369-1, doi:10.1351/pac200577081445; conditions: remaining carboxylic acid O of DOTA in the Co(II) complex; cited from earlier work
[2] = In vitro stability in mouse serum (HPLC); assay type: in vitro ADME; conditions: 37 °C, normalized to 0 h, n = 3
Protocol: Stability of the ^55Co-labeled folates was monitored over a period of 24 h in phosphate buffered saline (PBS) and mouse serum, to monitor the stability of a dose prior to injection (for potential shipment to a PET center) and match the longest biodistribution time point, respectively. The percentage of the intact complex was monitored at 1 h, 4 h, and 24 h via radio-TLC (PBS) or HPLC (mouse serum). […] In PBS, both radioconjugates retained 93% or greater stability at 24 h. […] As a control, one group of replicate serum tubes contained only [^55Co]CoCl2. […] Therefore, the peak corresponding to free [^55Co]CoCl2 (tR = 2.2 min) was used to determine the overall serum stability of the ^55Co-labeled chelates, which was approximately 95% for each compound at 24 h.
The ^55Co-labeled folate derivatives were diluted 10-fold in 10 mM PBS (pH = 7.4) or whole mouse serum (EMD Millipore, Burlington, MA) in 1.5 mL centrifuge tubes to final volumes of 100 μL. The tubes were incubated at 37 °C with vortexing at 900 rpm using an Eppendorf ThermoMixer C (Eppendorf, Hamburg, Germany) equipped with a 1.5 mL heating block. In the case of PBS stability, three replicate tubes were prepared with average final activity concentrations of 37 kBq (1 μCi) [^55Co]Co-cm10/μL or 37 kBq (1 μCi) [^55Co]Co-rf42/μL, and the final concentrations of precursor were 0.07 mM of cm10 or rf42. The percent of the intact complex was determined by analyzing 1 μL aliquots of each solution by radio-TLC at 1 h, 4 h and 24 h. For mouse serum stability, three replicate tubes were prepared for each time point for each complex. The final average activity concentrations were 11.1 kBq (0.3 μCi) [^55Co]Co-cm10/μL and 7.4 kBq (0.2 μCi) [^55Co]Co-rf42/μL and 0.02 mM final folate concentration. A control sample was prepared for each time point that contained an average of 10.4 kBq/μL of [^55Co]CoCl2. At each time point, 300 μL of ACN was added to each tube to precipitate serum proteins. The tubes were centrifuged at 4500 rpm for 5 min using a benchtop microcentrifuge (Eppendorf, Hamburg, Germany) and the supernatants collected. The pellets were washed once more, and the supernatants were collected and combined with the first ACN wash. The activities in the pellets and supernatants were determined using a 2480 Wizard2 Automatic Gamma Counter (Perkin Elmer, Waltham, MA, USA) to determine the amount of activity associated with the protein pellet. To determine the percentage of intact complex, the supernatant was diluted 2-fold with water, and 100 μL of this mixture was injected into the HPLC.

| Compound | pKa [1] | percent intact complex, mouse serum ([2]; 1 h) [%] | percent intact complex, mouse serum ([2]; 4 h) [%] | percent intact complex, mouse serum ([2]; 24 h) |
| --- | --- | --- | --- | --- |
| Nc1nc2ncc(CNc3ccc(C(=O)N[C@@H](CCC(=O)NC(CCCCNC(=O)CN4CCN(CC(=O)O)CCN(CC(=O)O)CCN(CC(=O)O)CC4)C(=O)NC(CCCCNC(=O)CCCc4ccc(I)cc4)C(=O)O)C(=O)O)cc3)nc2c(=O)[nH]1.[55Co] (stereo partly shown) [[^55Co]Co-cm10] | 4.04 | 98 ± 1 | 97.8 ± 0.6 | 94% and 95 ± 1% |
| Nc1nc2ncc(CNc3ccc(C(=O)N[C@@H](CCC(=O)NC(CCCCNC(=O)CCC(C(=O)O)N4CCN(CC(=O)O)CCN(CC(=O)O)CC4)C(=O)NC(CCCCNC(=O)CCCc4ccc(I)cc4)C(=O)O)C(=O)O)cc3)nc2c(=O)[nH]1.[55Co] (stereo partly shown) [[^55Co]Co-rf42] | – | 97.5 ± 0.5 | 97.2 ± 0.4 | 94% and 94.6 ± 0.6% |
